Tested on: U937 cell line (human histiocytic lymphoma cell line)
Assay: U937 cell viability assay (TNF-α + Z-VAD-FMK induced necroptosis)
Type: cell-based
Conditions: Homo sapiens, U-937; U937 cells, hTNF-α 0.1 μg/mL + Z-VAD-FMK 50 μM, 20 hours, CellTiter-Glo
In short: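 U937 cells (1.75×10^4/well, 1% FBS RPMI 1640) were preincubated 1 h with compound (0.0005–1.0 μM, 0.3% DMSO) and 50 μM Z-VAD-FMK, then stimulated with 0.1 μg/mL TNF-α for 20 h at 37 °C. Viability was read by CellTiter-Glo luminescence. Inhibition was normalised between TNF-α+Z-VAD and unstimulated wells, and IC50 was fitted.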

Compound	IC50 [nM]
CC(C)n1ncc2cnc(C(=O)NC3(c4ccc(-c5cncn(C6CCOC6)c5=O)cc4)CC3)nc21 (stereo in doubt) [Compound 81, (S)-1-i-propyl-N-(1-(4-(6-oxo-1-(tetrahydrofuran-3-yl)-1,6-dihydropyrimidin-5-yl)phenyl)cyclopropyl)-1H-pyrazolo[3,4-d]pyrimidine-6-carboxamide]	8
Cn1cncc(-c2ccc(C3(NC(=O)c4cc(Cc5ccccc5)on4)CC3)cc2)c1=O [Compound 5]	24
Cn1cncc(-c2ccc(C3(NC(=O)c4ncc(Cc5ccccc5)o4)CC3)cc2)c1=O [Compound 10]	8
Cn1cncc(-c2ccc(C3(NC(=O)c4nnc(Cc5ccccc5)o4)CC3)cc2)c1=O [Compound 11]	139
CC(C)n1ncc2cnc(C(=O)NC3(c4ccc(-c5cncn([C@@H](C)C(F)(F)F)c5=O)cc4)CC3)nc21 [Compound 40]	12
CC(C)n1cncc(-c2ccc(C3(NC(=O)c4ncc5cnn(C(C)C)c5n4)CC3)c(F)c2F)c1=O [Compound 93]	6
C[C@H](n1cncc(-c2ccc(C3(NC(=O)c4ncc5cnn(CC6CC6)c5n4)CC3)cc2)c1=O)C(F)(F)F [Compound 68]	6
C[C@@H](n1cncc(-c2ccc(C3(NC(=O)c4ncc5cnn(CC6CC6)c5n4)CC3)cc2)c1=O)C(F)(F)F [Compound 70]	2
CC(C)n1ncc2cnc(C(=O)NC3(c4ccc(-c5cncn(CC6CC6)c5=O)c(F)c4)CC3)nc21 [Compound 75]	2
CC(C)n1ncc2cnc(C(=O)NC3(c4ccc(-c5cncn(C)c5=O)cc4)CC3)nc21 [Compound 1, 1-isopropyl-N-(1-(4-(1-methyl-6-oxo-1,6-dihydropyrimidin-5-yl)phenyl)cyclopropyl)-1H-pyrazolo[3,4-d]pyrimidine-6-carboxamide]	21
Cn1cncc(-c2ccc(C3(NC(=O)c4nnc(Cc5ccccc5)[nH]4)CC3)cc2)c1=O [Compound 3]	21
CC(C)Cn1cncc(-c2ccc(C3(NC(=O)c4ncc5cnn(C(C)C)c5n4)CC3)cc2)c1=O [Compound 45]	2
CC(C)n1ncc2cnc(C(=O)NC3(c4ccc(-c5cncn(C)c5=O)cc4F)CC3)nc21 [Compound 26]	12
CC(C)n1ncc2cnc(C(=O)NC3(c4ccc(-c5cncn([C@@H](C)C6CC6)c5=O)cc4)CC3)nc21 [Compound 85, (S)—N-(1-(4-(1-(1-cyclopropylethyl)-6-oxo-1,6-dihydropyrimidin-5-yl)phenyl)cyclopropyl)-1-i-propyl-1H-pyrazolo[3,4-d]pyrimidine-6-carboxamide]	2
Cn1cncc(-c2ccc(C3(NC(=O)c4ncc5cnn(-c6ccccc6)c5n4)CC3)cc2)c1=O [Compound 4]	17
CC(C)n1ncc2cnc(C(=O)NC3(c4ccc(-c5cncn(CC6CC6)c5=O)c(F)c4F)CC3)nc21 [Compound 95]	3
CC[C@H](C)n1cncc(-c2ccc(C3(NC(=O)c4ncc5cnn(C(C)C)c5n4)CC3)cc2)c1=O [Compound 43]	2
CC(C)n1cncc(-c2ccc(C3(NC(=O)c4ncc5cnn(CC6CC6)c5n4)CC3)c(F)c2)c1=O [Compound 72]	2
CC(C)n1ncc2cnc(C(=O)NC3(c4ccc(-c5cncn(C6COC6)c5=O)cc4)CC3)nc21 [Compound 41]	64
CC(C)Cc1nc(C(=O)NC2(c3ccc(-c4cncn(C)c4=O)cc3)CC2)ncc1Cl [Compound 6]	21
CC(C)n1ncc2cnc(C(=O)NC3(c4ccc(-c5cncn([C@@H](C)C(F)(F)F)c5=O)cc4F)CC3)nc21 (stereo in doubt) [Compound 47]	2

Compound	IC50 [nM]
CC(C)n1ncc2cnc(C(=O)NC3(c4ccc(-c5cncn(C6CC6)c5=O)cc4)CC3)nc21 [Compound 12]	18
CC(C)n1ncc2cnc(C(=O)NC3(c4ccc(-c5cncn(CC6CCC6)c5=O)cc4)CC3)nc21 [Compound 66]	3
CC(C)n1ncc2cnc(C(=O)NC3(c4ccc(-c5cncn(CC6(C)CC6)c5=O)cc4)CC3)nc21 [Compound 86]	1
CC(C)n1ncc2cnc(C(=O)NC3(c4ccc(-c5cncn(C)c5=O)cc4)CC3)cc21 [Compound 28, 1-isopropyl-N-(1-(4-(1-methyl-6-oxo-1,6-dihydropyrimidin-5-yl)phenyl)cyclopropyl)-1H-pyrazolo[4,3-c]pyridine-6-carboxamide]	135
CC(C)n1ncc2cnc(C(=O)NC3(c4ccc(-c5cncn(CC6CC6)c5=O)cc4)CC3)nc21 [Compound 36]	3
CC(C)Cc1nc(C(=O)NC2(c3ccc(-c4cncn(C(C)C)c4=O)cc3)CC2)ncc1Cl [Compound 22]	3
CC(C)n1cncc(-c2cc(F)c(C3(NC(=O)c4ncc5cnn(C(C)C)c5n4)CC3)c(F)c2)c1=O [Compound 92]	100
CC(C)n1ncc2cnc(C(=O)NC3(c4ccc(-c5cncn([C@H](C)C(F)(F)F)c5=O)cc4)CC3)nc21 [Compound 39]	6
CC(C)n1cncc(-c2ccc(C3(NC(=O)c4ncc5cnn(-c6ccccc6)c5n4)CC3)cc2)c1=O [Compound 19]	3
CC(C)n1ncc2cnc(C(=O)NC3(c4ccc(-c5cncn(CC(F)(F)F)c5=O)cc4)CC3)nc21 [Compound 38]	13
CC(C)n1cncc(-c2ccc(C3(NC(=O)c4ncn(Cc5ccccc5)n4)CC3)cc2)c1=O [Compound 17]	1
CC(C)n1ncc2cnc(C(=O)NC3(c4ccc(-c5cncn([C@@H]6C[C@@H]6F)c5=O)cc4)CC3)nc21 [Compound 69]	9
O=C(NC1(c2ccc(-c3cncn(CC4CC4)c3=O)cc2)CC1)c1ncc2cnn(CC3CC3)c2n1 [Compound 64]	2
C[C@H](n1cncc(-c2ccc(C3(NC(=O)c4ncc5cnn(CC6CC6)c5n4)CC3)c(F)c2)c1=O)C(F)(F)F [Compound 71]	3
CC(C)n1ncc2cnc(C(=O)NC3(c4ccc(-c5cncn(C6(C)CC6)c5=O)cc4)CC3)nc21 [Compound 78]	8
C[C@H](c1ccccc1)n1cnc(C(=O)NC2(c3ccc(-c4cncn(C)c4=O)cc3)CC2)n1 [Compound 55, (R)—N-(1-(4-(1-methyl-6-oxo-1,6-dihydropyrimidin-5-yl)phenyl)cyclopropyl)-1-(1-phenylethyl)-1H-1,2,4-triazole-3-carboxamide]	7
CC(C#N)n1cncc(-c2ccc(C3(NC(=O)c4ncc5cnn(C(C)C)c5n4)CC3)cc2)c1=O (stereo in doubt) [Compound 83, (S)—N-(1-(4-(1-(1-cyanoethyl)-6-oxo-1,6-dihydropyrimidin-5-yl)phenyl)cyclopropyl)-1-i-propyl-1H-pyrazolo[3,4-d]pyrimidine-6-carboxamide]	17
CC(C)n1cncc(-c2ccc(C3(NC(=O)c4ncc5cnn(C(C)C)c5n4)CC3)cc2)c1=O [Compound 29, 1-isopropyl-N-(1-(4-(1-isopropyl-6-oxo-1,6-dihydropyrimidin-5-yl)phenyl)cyclopropyl)-1H-pyrazolo[3,4-d]pyrimidine-6-carboxamide]	3
CC(C)n1ncc2cnc(C(=O)NC3(c4ccc(-c5cncn(C)c5=O)c(F)c4)CC3)nc21 [Compound 23, N-(1-(3-fluoro-4-(1-methyl-6-oxo-1,6-dihydropyrimidin-5-yl)phenyl)cyclopropyl)-1-isopropyl-1H-pyrazolo[3,4-d]pyrimidine-6-carboxamide]	57
CC(C)n1cncc(-c2ccc(C3(NC(=O)c4ncc5cnn(CC6CC6)c5n4)CC3)cc2)c1=O [Compound 61]	3
CCn1cncc(-c2ccc(C3(NC(=O)c4ncc5cnn(C(C)C)c5n4)CC3)cc2)c1=O [Compound 37]	14

— US20240002388A1, “PYRIMIDINONE COMPOUNDS AND USES THEREOF” (HUTCHISON MEDIPHARMA LIMITED, priority 2020, published 2024)
